Experimental data: US6777412B2 (priority 1990, dated 2004)

How the values were obtained:
Pyricularia oryzae = assay type: in vivo; details: 100 ppm active ingredient foliar spray plus root drench (approx. 40 ppm a.i. in dry soil), one or two days before inoculation
Venturia inaequalis = test: Foliar fungal disease test on plants: Venturia inaequalis (Vi); assay type: in vivo; details: 100 ppm active ingredient foliar spray plus root drench (approx. 40 ppm a.i. in dry soil), one or two days before inoculation
Summary of the method: (§1)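 Potted plants treated by foliar spray to maximum retention (100 ppm a.i. unless stated) plus root drench (~40 ppm a.i. in dry soil), with 0.05% Tween 20 on cereals, one or two days before spore-suspension inoculation.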

Puccinia recondita = test: Foliar fungal disease test on plants: Puccinia recondita (Pr); assay type: in vivo; details: 100 ppm active ingredient foliar spray plus root drench (approx. 40 ppm a.i. in dry soil), one or two days before inoculation
Summary of the method: as §1

[1] = tested on: Phytophthora infestans lycopersici; assay type: in vivo; details: 100 ppm active ingredient foliar spray plus root drench (approx. 40 ppm a.i. in dry soil), one or two days before inoculation
Cercospora arachidicola = test: Foliar fungal disease test on plants: Cercospora arachidicola (Ca); assay type: in vivo; details: 100 ppm active ingredient foliar spray plus root drench (approx. 40 ppm a.i. in dry soil), one or two days before inoculation
Protocol: The compounds were tested against a variety of foliar fungal diseases of plants. The technique employed was as follows.
The plants were grown in John Innes Potting Compost (No.1 or 2) in 4 cm diameter minipots. The test compounds were formulated either by bead milling with aqueous Dispersol T or as a solution in acetone or acetone/ethanol which was diluted to the required concentration immediately before use. For the foliage diseases, the formulations (100 ppm active ingredient except where otherwise indicated) were sprayed onto the foliage and applied to the roots of the plants in the soil. The sprays were applied to maximum retention and the root drenches to a final concentration equivalent to approximately 40 ppm a.i. in dry soil. Tween 20, to give a final concentration of 0.05%, was added when the sprays were applied to cereals.
For most of the tests the compound was applied to the soil (roots) and to the foliage (by spraying) one or two days before the plant was inoculated with the disease. An exception was the test on Erysiphe graminis in which the plants were inoculated 24 hours before treatment. Foliar pathogens were applied by spray as spore suspensions onto the leaves of test plants. After inoculation, the plants were put into an appropriate environment to allow infection to proceed and then incubated until the disease was ready for assessment. The period between inoculation and assessment varied from four to fourteen days according to the disease and environment.
The disease control vas recorded by the following grading:
3=trace-5% of disease on untreated plants
2=6-25% of disease on untreated plants
1=26-59% of disease on untreated plants
0=60-100% of disease on untreated plants
Ca Cercospora arachidicola

Plasmopara viticola = test: Foliar fungal disease test on plants: Plasmopara viticola (Pv); assay type: in vivo; details: 100 ppm active ingredient foliar spray plus root drench (approx. 40 ppm a.i. in dry soil), one or two days before inoculation
Summary of the method: as §1

Erysiphe graminis hordei = test: Foliar fungal disease test on plants: Erysiphe graminis hordei (Egh); assay type: in vivo; details: 100 ppm active ingredient foliar spray plus root drench (approx. 40 ppm a.i. in dry soil); plants inoculated 24 hours before treatment

Row | SMILES | melting point [°C] | disease control grading, Po (Pyricularia oryzae) (Pyricularia oryzae) | disease control grading, Vi (Venturia inaegualis) (Venturia inaequalis) | disease control grading, Pr (Puccinia recondita) (Puccinia recondita) | disease control grading, Pil (Phytophthora infestans lycopersici) [1] | disease control grading, Ca (Cercospora arachidicola) (Cercospora arachidicola) | disease control grading, Pv (Plasmopara viticola) (Plasmopara viticola) | disease control grading, Egh (Erysiphe graminis hordei) (Erysiphe graminis hordei)
1 | CO/C=C(/C(=O)OC)c1ccccc1Oc1cc(OCc2ccc([N+](=O)[O-])cc2)ncn1 | 96 to 98 |  |  |  |  |  |  | 
2 | CO/C=C(/C(=O)OC)c1ccccc1Oc1cc(Sc2ncccn2)ncn1 [239 of Table I] |  | 3 (3=trace-5% of disease on untreated plants) | 4 (4=no disease) | 4 (4=no disease) | 4 (4=no disease) | 4 (4=no disease) | 4 (4=no disease) | 4 (4=no disease)
3 | CO/C=C(/C(=O)OC)c1ccccc1Oc1cc(Nc2ccccc2C#N)ncn1 [377 of Table I] |  | 0 (0=60-100% of disease on untreated plants) | 4 (4=no disease) | 4 (4=no disease) | 4 (4=no disease) | 4 (4=no disease) | 4 (4=no disease) | 4 (4=no disease)
4 | CO/C=C(/C(=O)OC)c1ccccc1Oc1cc(Nc2ccccc2)ncn1 [4 of Table I] |  | 3 (3=trace-5% of disease on untreated plants) | 4 (4=no disease) | 4 (4=no disease) | 3 (3=trace-5% of disease on untreated plants) | 4 (4=no disease) | 4 (4=no disease) | 4 (4=no disease)
5 | CO/C=C(/C(=O)OC)c1ccccc1Oc1cc(Sc2ccccn2)ncn1 [218 of Table I] |  | 3 (3=trace-5% of disease on untreated plants) | 4 (4=no disease) | 4 (4=no disease) | 3 (3=trace-5% of disease on untreated plants) | 4 (4=no disease) | 4 (4=no disease) | 4 (4=no disease)
6 | CO/C=C(/C(=O)OC)c1ccccc1Oc1cc(N(C(=O)c2ccccc2)C(=O)c2ccccc2)ncn1 [398 of Table I] |  | 3 (3=trace-5% of disease on untreated plants) | 4 (4=no disease) | 4 (4=no disease) | 4 (4=no disease) | 4 (4=no disease) | 4 (4=no disease) | 4 (4=no disease)
7 | CO/C=C(/C(=O)OC)c1ccccc1Oc1cc(Nc2ccccn2)ncn1 [220 of Table I] |  | 4 (4=no disease) | 4 (4=no disease) | 4 (4=no disease) | 0 (0=60-100% of disease on untreated plants) | 4 (4=no disease) | 4 (4=no disease) | 4 (4=no disease)
